Consider 13 molecules from patent US20240050428A1 (Cullgen (Shanghai), Inc., priority 2020, published 2024).

The structures appear in SMILES notation. Where two headings read alike, the source gives them in different places. Some results are limits rather than exact numbers.

One assay relates to MOLM-13 cells. The assay can be described thus: Cell viability assay (CellTiter-Glo) in MOLM-13 cells, alone or with gilteritinib. In kind it is cell-based. The settings on record: Homo sapiens, MOLM-13, 72 h, MOLM-13 cells, three days, CellTiter-Glo.
The test system of a further assay is MV4;11 cells. Briefly: Cell viability assay (CellTiter-Glo) in MV4;11 cells, alone or with gilteritinib. In kind it is cell-based. The settings on record: Homo sapiens, MV4-11, 72 h, MV4;11 cells, three days, CellTiter-Glo, read-out: MV4. For orientation: In ATP-based viability assays light output follows the ATP content of the culture.
Where [1] appears, read: compound alone (without gilteritinib), read-out: MOLM-13 IC50.
Where [2] appears, read: compound with gilteritinib 20 nM, read-out: MOLM-13 IC50 gilteritinib.
Where [3] appears, read: compound alone (without gilteritinib), 11 IC50.
[4] abbreviates: compound with gilteritinib 10 nM, 11 IC50 gilteritinib.

For `Cn1ncc2cnc(-c3cn([C@H]4C[C@H](CNc5ccc6c(c5)C(=O)N(C5CCC(=O)NC5=O)C6=O)C4)nc3C3CC3)cc21` (stereo partly drawn) [GS-613, 5-(((trans-3-(3-Cyclopropyl-4-(1-methyl-1H-pyrazolo[4,3-c]pyridin-6-yl)-1H-pyrazol-1-yl)cyclobutyl)methyl)amino)-2-(2,6-dioxopiperidin-3-yl)isoindoline-1,3-dione], the IC50 in the assay with MOLM-13 cells (setting [1]) is 10 to 100 nM; in the assay on MOLM-13 cells (setting [2]), below 10 nM; with MV4;11 cells (setting [3]), below 10 nM; in the assay with MV4;11 cells (setting [4]), below 10 nM.
`CC(C)n1ncc2cnc(-c3cn([C@H]4C[C@H](CNc5ccc6c(c5)C(=O)N(C5CCC(=O)NC5=O)C6=O)C4)nc3C3CC3)cc21` (stereo partly drawn) [GS-614, 5-(((trans-3-(3-Cyclopropyl-4-(1-isopropyl-1H-pyrazolo[4,3-c]pyridin-6-yl)-1H-pyrazol-1-yl)cyclobutyl)methyl)amino)-2-(2,6-dioxopiperidin-3-yl)isoindoline-1,3-dione]: the IC50 is 10 to 100 nM in the assay on MOLM-13 cells (setting [1]), below 10 nM with MOLM-13 cells (setting [2]), below 10 nM in the assay on MV4;11 cells (setting [3]) and below 10 nM with MV4;11 cells (setting [4]).
`Cn1ccc2c(-c3cn([C@H]4C[C@H](CNc5ccc6c(c5)C(=O)N(C5CCC(=O)NC5=O)C6=O)C4)nc3C3CC3)nccc21` (stereo partly drawn) [GS-615, 5-(((trans-3-(3-Cyclopropyl-4-(1-methyl-1H-pyrrolo[3,2-c]pyridin-4-yl)-1H-pyrazol-1-yl)cyclobutyl)methyl)amino)-2-(2,6-dioxopiperidin-3-yl)isoindoline-1,3-dione]: the IC50 was 10 to 100 nM in the assay with MOLM-13 cells (setting [1]), below 10 nM in the assay on MOLM-13 cells (setting [2]), 10 to 100 nM in the assay with MV4;11 cells (setting [3]) and below 10 nM with MV4;11 cells (setting [4]).
Take `O=C1CCC(N2C(=O)c3ccc(NC[C@H]4C[C@H](n5cc(-c6ccc7c(n6)CCC7)c(C6CC6)n5)C4)cc3C2=O)C(=O)N1` (stereo partly drawn) [GS-616, 5-(((trans-3-(3-Cyclopropyl-4-(6,7-dihydro-5H-cyclopenta[b]pyridin-2-yl)-1H-pyrazol-1-yl)cyclobutyl)methyl)amino)-2-(2,6-dioxopiperidin-3-yl)isoindoline-1,3-dione]: the IC50 was 10 to 100 nM with MOLM-13 cells (setting [1]), below 10 nM in the assay with MOLM-13 cells (setting [2]), 10 to 100 nM in the assay on MV4;11 cells (setting [3]) and below 10 nM in the assay with MV4;11 cells (setting [4]).
Take `CN1CCC(Nc2cccnc2-c2cn([C@H]3C[C@H](CNc4ccc5c(c4)C(=O)N(C4CCC(=O)NC4=O)C5=O)C3)nc2C2CC2)CC1` (stereo partly drawn) [GS-617, 5-(((trans-3-(3-Cyclopropyl-4-(3-((1-methylpiperidin-4-yl)amino)pyridin-2-yl)-1H-pyrazol-1-yl)cyclobutyl)methyl)amino)-2-(2,6-dioxopiperidin-3-yl)isoindoline-1,3-dione]: the IC50 with MOLM-13 cells (setting [1]), with MOLM-13 cells (setting [2]), in the assay on MV4;11 cells (setting [3]) and with MV4;11 cells (setting [4]) was above 1000 nM in each case.
As for `Cn1ccc2cnc(-c3cn([C@H]4C[C@H](CNc5ccc6c(c5)C(=O)N(C5CCC(=O)NC5=O)C6=O)C4)nc3C3CC3)cc21` (stereo partly drawn) [GS-618, 5-(((trans-3-(3-Cyclopropyl-4-(1-methyl-1H-pyrrolo[3,2-c]pyridin-6-yl)-1H-pyrazol-1-yl)cyclobutyl)methyl)amino)-2-(2,6-dioxopiperidin-3-yl)isoindoline-1,3-dione], the IC50 with MOLM-13 cells (setting [1]) was 10 to 100 nM; in the assay with MOLM-13 cells (setting [2]), below 10 nM; with MV4;11 cells (setting [3]) it was below 10 nM; with MV4;11 cells (setting [4]), below 10 nM.
Take `CN1CC(c2cccc(-c3cn([C@H]4C[C@H](CNc5ccc6c(c5)C(=O)N(C5CCC(=O)NC5=O)C6=O)C4)nc3C3CC3)n2)C1` (stereo partly drawn) [GS-619, 5-(((trans-3-(3-Cyclopropyl-4-(6-(1-methylazetidin-3-yl)pyridin-2-yl)-1H-pyrazol-1-yl)cyclobutyl)methyl)amino)-2-(2,6-dioxopiperidin-3-yl)isoindoline-1,3-dione]: the IC50 in the assay with MOLM-13 cells (setting [1]), with MOLM-13 cells (setting [2]), in the assay on MV4;11 cells (setting [3]) and in the assay with MV4;11 cells (setting [4]) was above 1000 nM each time.
In the case of `CNc1cccnc1-c1cn([C@H]2C[C@H](CNc3ccc4c(c3)C(=O)N(C3CCC(=O)NC3=O)C4=O)C2)nc1C1CC1` (stereo partly drawn) [GS-620, 5-(((trans-3-(3-Cyclopropyl-4-(3-(methylamino)pyridin-2-yl)-1H-pyrazol-1-yl)cyclobutyl)methyl)amino)-2-(2,6-dioxopiperidin-3-yl)isoindoline-1,3-dione], the IC50 is 100 to 1000 nM in the assay with MOLM-13 cells (setting [1]), below 10 nM with MOLM-13 cells (setting [2]), 10 to 100 nM in the assay on MV4;11 cells (setting [3]) and below 10 nM with MV4;11 cells (setting [4]).
Consider `CN(C)c1cccnc1-c1cn([C@H]2C[C@H](CNc3ccc4c(c3)C(=O)N(C3CCC(=O)NC3=O)C4=O)C2)nc1C1CC1` (stereo partly drawn) [GS-621, 5-(((trans-3-(3-Cyclopropyl-4-(3-(dimethylamino)pyridin-2-yl)-1H-pyrazol-1-yl)cyclobutyl)methyl)amino)-2-(2,6-dioxopiperidin-3-yl)isoindoline-1,3-dione], for which the IC50 is 10 to 100 nM in the assay on MOLM-13 cells (setting [1]), below 10 nM in the assay with MOLM-13 cells (setting [2]), 10 to 100 nM in the assay on MV4;11 cells (setting [3]) and below 10 nM in the assay with MV4;11 cells (setting [4]).
On to `CC(C)n1ccc2cnc(-c3cn([C@H]4C[C@H](CNc5ccc6c(c5)C(=O)N(C5CCC(=O)NC5=O)C6=O)C4)nc3C3CC3)cc21` (stereo partly drawn) [GS-622, 5-(((trans-3-(3-Cyclopropyl-4-(1-isopropyl-1H-pyrrolo[3,2-c]pyridin-6-yl)-1H-pyrazol-1-yl)cyclobutyl)methyl)amino)-2-(2,6-dioxopiperidin-3-yl)isoindoline-1,3-dione], for which the IC50 was 10 to 100 nM in the assay with MOLM-13 cells (setting [1]), below 10 nM with MOLM-13 cells (setting [2]), 10 to 100 nM in the assay on MV4;11 cells (setting [3]) and below 10 nM with MV4;11 cells (setting [4]).
For `CC(C)n1ccc2c(-c3cn([C@H]4C[C@H](CNc5ccc6c(c5)C(=O)N(C5CCC(=O)NC5=O)C6=O)C4)nc3C3CC3)nccc21` (stereo partly drawn) [GS-623, 5-(((trans-3-(3-Cyclopropyl-4-(1-isopropyl-1H-pyrrolo[3,2-c]pyridin-4-yl)-1H-pyrazol-1-yl)cyclobutyl)methyl)amino)-2-(2,6-dioxopiperidin-3-yl)isoindoline-1,3-dione], the IC50 in the assay with MOLM-13 cells (setting [1]) was 10 to 100 nM; in the assay on MOLM-13 cells (setting [2]) it was below 10 nM; in the assay with MV4;11 cells (setting [3]) it was 10 to 100 nM; with MV4;11 cells (setting [4]), below 10 nM.
Turning to `O=C1CCC(N2C(=O)c3ccc(NC[C@H]4C[C@H](n5cc(-c6cnc7c(C8CNC8)cccc7n6)c(C6CC6)n5)C4)cc3C2=O)C(=O)N1` (stereo partly drawn) [GS-624, 5-(((trans-3-(4-(5-(Azetidin-3-yl)quinoxalin-2-yl)-3-cyclopropyl-1H-pyrazol-1-yl)cyclobutyl)methyl)amino)-2-(2,6-dioxopiperidin-3-yl)isoindoline-1,3-dione], the IC50 in the assay with MOLM-13 cells (setting [1]) is above 1000 nM; with MOLM-13 cells (setting [2]), 10 to 100 nM; with MV4;11 cells (setting [3]), 100 to 1000 nM; in the assay with MV4;11 cells (setting [4]), 10 to 100 nM.
As to `O=C1CCC(N2C(=O)c3ccc(NCCC[C@H]4C[C@H](n5cc(-c6nccc7cccnc67)c(C6CC6)n5)C4)cc3C2=O)C(=O)N1` (stereo partly drawn) [GS-625, 5-((3-(trans-3-(3-Cyclopropyl-4-(1,7-naphthyridin-8-yl)-1H-pyrazol-1-yl)cyclobutyl)propyl)amino)-2-(2,6-dioxopiperidin-3-yl)isoindoline-1,3-dione], the IC50 in the assay with MOLM-13 cells (setting [1]) is 100 to 1000 nM; with MOLM-13 cells (setting [2]) it was 10 to 100 nM; in the assay with MV4;11 cells (setting [3]) it was 10 to 100 nM; with MV4;11 cells (setting [4]) it was below 10 nM.
